Reference: US9724348B2, “Crystalline forms” (VM Therapeutics LLC, priority 2013, dated 2017)

Legend:
CCI rats = experiment: Chronic Constriction Injury (CCI) model of neuropathic pain in rat, von Frey paw withdrawal threshold; format: in vivo
From the text: Chronic Constriction Injury (CCI) Model of Neuropathic Pain in Rat. The CCI model is one of the most commonly used mono-neuropathic pain model firstly described in details by Bennett and Xie (Bennett G J, Xie Y K. Pain. 1988; 33(1):87-107). It mimics important clinical chronic pain symptoms such as mechanical allodynia and thermal hyperalgesia. Chronic constriction injury of the sciatic nerve was produced by tying four loose ligatures around the left sciatic nerve according to the method of Bennett and Xie. […] Calibrated von Frey filaments were used to determine the lowest mechanical (tactile) threshold required to evoke a brisk paw withdrawal reflex in the rat hindpaws. Rats were allowed to acclimatize in wire mesh cages for 15-20 min prior to von Frey testing. Assessment of paw withdrawal thresholds (PWTs) using von Frey filaments was undertaken prior to CCI-surgery (pre-surgery baseline on day 0). Before the drug dosing on day 14, the pre-dose baseline was recorded for each rat. […] Drug-naïve CCI-rats (n=4-6 per group) were used. The oral (PO) gavage vehicle was either 10% (w/v) Povidone K25 in water for PO dosing, or 18% (w/v) CrosPovidone in water for PO dosing, or 0.5% CMC-Na/0.1% Tween 80 in distilled water for PO dosing. The positive control gabapentin was dissolved in the vehicle and orally given at 100 mg/kg (by oral gavage). Test article was dissolved or suspended in the vehicle and orally given at 25, 50, 100 and 150 mg/kg. Each CCI-rat was administered a single oral dose of test article, gabapentin or vehicle control, 2 hours before assessment of PWT.

[1] = Competitive slurries of polymorphic forms; format: physicochemical; conditions: competitive slurries in IPA, IPA and water, and acetone at ambient temperature and about 40° C.; all gave complete conversion to Form 2
Procedure: The DSC of Form 2 has a single endotherm at about 160° C. Competitive slurries in IPA, IPA and water, and acetone at ambient temperature and about 40° C., all results in complete conversion to Form 2.

[2] = Solid form conversion on drying or during DSC; format: physicochemical; conditions: drying at 80° C. or during a DSC experiment
Procedure: Also, Form 5 can be possibly isostructural with Form 2 or Form 2′, or the differences between these forms may relate to the presence or absence of a particular amount of surface water.
Form 5 may convert to a different form (Form 2′) which has a similar X-ray pattern to Form 2 on drying (80° C.), as shown in Table below and FIG. 11 (XRPD), FIG. 12 (^1H-NMR), and FIG. 13 (DSC).

anxiety disorders = conditions: human clinical studies; cited from earlier work
[3] = system: rat CFA-induced inflammatory pain; experiment: Rat CFA-induced inflammatory pain model; format: in vivo; conditions: oral dose, FIG. 15
Procedure: Rat CFA-Induced Inflammatory Pain Model. Hyperalgesia was induced by subcutaneously injecting […] of CFA (Sigma-Aldrich, St. Louis, Mo., USA) into the plantar surface of the left hind paw of the rats using a 30-gauge hypodermic needle under sevoflurane anesthesia. The classical signs of inflammation, including edema and redness, for up the last day of tests were recorded. To assess the effect of test article on CFA-induced inflammatory pain, the rats were anesthetized with sevoflurane 3 hours after CFA injection and then orally dosed with test article (n=6) or vehicle (n=6) or positive control. Paw withdrawal latencies (thermal hyperalgesia) are measured before and at 2 and 4 hours after CFA injection. Mechanical thresholds were also measured in the same way with either the compound of current invention (n=6) or vehicle (n=6) or positive control, Naproxen (n=6) at similar different time points (for example, 1 and 3 hour). The noxious heat and mechanical thresholds were separately measured in each group of rats. The threshold was measured 3-5 times in each rat and then averaged. Stimulus interval was 5 min.

SNL rats = experiment: Spinal Nerve Ligation (SNL) mono-neuropathic pain model in rat, von Frey paw withdrawal threshold; format: in vivo; conditions: oral gavage, dose-dependent
Procedure: Spinal Nerve Ligation (SNL) Mono-Neuropathic Pain Model in Rat. The surgical procedure will be performed according to the method firstly described by Kim and Chung (Kim S H, Chung J M. Pain. 1992; 50(3):355-63.). This procedure will result in tactile allodynia in the left hindpaw. […] The dose-response anti-allodynia effects of test compound: on day 14 after surgery, rats were treated with test article at one of four doses, vehicle or positive control by oral gavage, and PWT was determined by calibrated von Frey filaments at time points of 0 (right before the drug dosing, Pre-Dose Baseline), 0.5, 1, 2, 4 and 6 hr. The anti-allodynia effects of repeated administration of test article: Administration of test article was started on day 7 after surgery, once a day for 7 days. PWT was determined by calibrated von Frey filaments, 2 hour after test article dosing each day. After 7 days dosing, the measurement were continued, every other day without compound dosing for another 7 days. PWT was determined at the time points as given above.

NCC1(CC(=O)O)CCCCC1 [gabapentin, reference compound]
drowsiness, motor incoordination or other abnormality observed (CCI rats; CCI rats after single oral dose): drowsiness or motor incoordination

Cc1nc2ccccn2c(=O)c1CCN1CCC(C(=O)c2ccc(F)cc2)CC1 [Form 2, 3-(2-{4-[(4-fluorophenyl)carbonyl]piperidin-1-yl}ethyl)-2-methyl-4H-pyrido[1,2-a]pyrimidin-4-one]
thermodynamic stability of crystalline form [1]: most thermodynamically stable form

Cc1nc2ccccn2c(=O)c1CCN1CCC(C(=O)c2ccc(F)cc2)CC1 [Form 5, 3-(2-{4-[(4-fluorophenyl)carbonyl]piperidin-1-yl}ethyl)-2-methyl-4H-pyrido[1,2-a]pyrimidin-4-one]
solid form stability on drying [2]: can convert to a Form 2′ on drying

Cc1nc2ccccn2c(=O)c1CCN1CCC(C(=O)c2ccc(F)cc2)CC1 [Compound 10, 3-(2-{4-[(4-fluorophenyl)carbonyl]piperidin-1-yl}ethyl)-2-methyl-4H-pyrido[1,2-a]pyrimidin-4-one]
anti-anxiety effects (anxiety disorders): did not show any dose-related anti-anxiety effects
safety in human (anxiety disorders): safe in human
potency relative to positive control gabapentin (CCI rats; CCI rats, oral, gabapentin 100 mg/kg): more than 100 time
mechanical allodynia (paw withdrawal threshold) (CCI rats; CCI rats, single oral dose 25, 50, 100 and 150 mg/kg, PWT 2 hours after dosing, dose-dependent, FIG. 14): significantly reduced mechanical allodynia
drowsiness, motor incoordination or other abnormality observed (CCI rats; rat, in vivo, po): no such effect or other abnormality was observed
analgesic effect compared with positive control Naproxen [3]: more efficacious than positive control Naproxen
mechanical allodynia (paw withdrawal threshold) (SNL rats): significantly reduced mechanical allodynia
